Measured values published in patent US20230218765A1, “SMALL MOLECULE DEGRADERS OF SHP2 PROTEIN” (THE REGENTS OF THE UNIVERSITY OF MICHIGAN, priority 2020, published 2023).
Where a SMILES comes first, the peptide text is derived from it. The star is where a group is joined. Cbz = O=C(OCc1ccccc1)*

How the values were obtained:
[1] = target: T1, SHP2 (Homo sapiens, UniProt Q06124); experiment: SHP2 degradation by Western blot in KYSE520 cells; settings: for block of SHP2-D26-induced degradation of SHP2 protein: KYSE520, pre-treatment 1 h (VHL 10 µM, compound 4 10 µM, MLN4924 0.5 µM, MG132 3 µm), then SHP2-D26 0.1 µM
T1 sequence (Q06124 1-593): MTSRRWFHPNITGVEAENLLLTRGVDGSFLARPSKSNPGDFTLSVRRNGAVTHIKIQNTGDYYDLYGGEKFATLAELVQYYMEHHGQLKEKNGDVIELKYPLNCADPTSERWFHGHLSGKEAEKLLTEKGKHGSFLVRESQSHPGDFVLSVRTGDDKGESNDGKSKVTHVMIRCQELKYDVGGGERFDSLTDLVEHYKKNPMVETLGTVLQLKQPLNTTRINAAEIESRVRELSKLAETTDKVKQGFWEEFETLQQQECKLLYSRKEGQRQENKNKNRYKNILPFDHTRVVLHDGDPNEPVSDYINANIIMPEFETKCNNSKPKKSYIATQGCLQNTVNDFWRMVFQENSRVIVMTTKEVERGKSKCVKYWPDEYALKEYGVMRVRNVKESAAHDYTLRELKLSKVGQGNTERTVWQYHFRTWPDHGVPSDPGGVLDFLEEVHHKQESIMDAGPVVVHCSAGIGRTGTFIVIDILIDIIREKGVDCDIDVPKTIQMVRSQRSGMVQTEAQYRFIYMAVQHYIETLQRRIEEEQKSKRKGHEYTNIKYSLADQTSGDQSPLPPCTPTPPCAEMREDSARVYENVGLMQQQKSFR
Procedure: (§1) Western blotting and quantification were performed with regular western blot method and band quantification was performed using ImageJ. Treated cells were lysed by RIPA buffer supplemented with protease and phosphatase inhibitors. […] The net protein bands and loading controls are calculated by deducting the background from the inverted band value. The final relative quantification values are the ratio of the net band to net loading control.
(§2) The treated cells were harvested and the level of SHP2 protein was examined by blot analysis. GAPDH was used as a loading control.
(§3) SHP2 protein was examined by Western blotting and the protein level was quantified by densitometry and normalized to the corresponding density of the GAPDH protein. […] Cells were treated with 100 nM of SHP2-D26 for different times. SHP2 protein was examined by Western blotting and the GAPDH protein was used as the loading control.

[2] = target: T1, SHP2; experiment: SHP2 degradation by Western blot in MV4;11 cells; settings: 0.1 µM
Procedure: as §1, §2, §3

Row | % of SHP2 protein degradation in KYSE520 cell line ([1]; 0.1 µM) [%] | % of SHP2 protein degradation in KYSE520 cell line ([1]; 1 µM) [%] | % of SHP2 protein degradation in MV4;11 cell line [2] [%] | SMILES | block of SHP2-D26-induced degradation of SHP2 protein [1]
1 | 9 | 7 |  | Cc1ncsc1-c1ccc([C@@H](C)NC(=O)[C@H]2C[C@H](O)CN2C(=O)[C@H](NC(=O)CCCNC(=O)CC(=O)Nc2cccc(Sc3ncc(N4CCC(C)(N)CC4)nc3N)c2Cl)C(C)(C)C)cc1 [Compound 8] | 
2 | 13 | 6 |  | Cc1ncsc1-c1ccc([C@@H](C)NC(=O)[C@H]2C[C@H](O)CN2C(=O)[C@H](NC(=O)CCCCNC(=O)CC(=O)Nc2cccc(Sc3ncc(N4CCC(C)(N)CC4)nc3N)c2Cl)C(C)(C)C)cc1 [Compound 9] | 
3 | 0 | 3 |  | Cc1ncsc1-c1ccc([C@@H](C)NC(=O)[C@H]2C[C@H](O)CN2C(=O)[C@H](NC(=O)CCCCCNC(=O)CC(=O)Nc2cccc(Sc3ncc(N4CCC(C)(N)CC4)nc3N)c2Cl)C(C)(C)C)cc1 [Compound 10] | 
4 | 0 | 0 |  | Cc1ncsc1-c1ccc([C@@H](C)NC(=O)[C@H]2C[C@H](O)CN2C(=O)[C@H](NC(=O)CCCCCCNC(=O)CC(=O)Nc2cccc(Sc3ncc(N4CCC(C)(N)CC4)nc3N)c2Cl)C(C)(C)C)cc1 [Compound 11] | 
5 | 20 | 14 |  | Cc1ncsc1-c1ccc([C@@H](C)NC(=O)[C@H]2C[C@H](O)CN2C(=O)[C@H](NC(=O)CCCCCCCNC(=O)CC(=O)Nc2cccc(Sc3ncc(N4CCC(C)(N)CC4)nc3N)c2Cl)C(C)(C)C)cc1 [Compound 12] | 
6 | 81 | 80 |  | Cc1ncsc1-c1ccc([C@@H](C)NC(=O)[C@H]2C[C@H](O)CN2C(=O)[C@H](NC(=O)CCCCCCCCNC(=O)CC(=O)Nc2cccc(Sc3ncc(N4CCC(C)(N)CC4)nc3N)c2Cl)C(C)(C)C)cc1 [Compound 13] | 
7 | >95 | 92 |  | Cc1ncsc1-c1ccc([C@@H](C)NC(=O)[C@H]2C[C@H](O)CN2C(=O)[C@H](NC(=O)CCCCCCCCCNC(=O)CC(=O)Nc2cccc(Sc3ncc(N4CCC(C)(N)CC4)nc3N)c2Cl)C(C)(C)C)cc1 [Compound 14] | 
8 | >95 | >95 |  | Cc1ncsc1-c1ccc([C@@H](C)NC(=O)[C@H]2C[C@H](O)CN2C(=O)[C@H](NC(=O)CCCCCCCCCCNC(=O)CC(=O)Nc2cccc(Sc3ncc(N4CCC(C)(N)CC4)nc3N)c2Cl)C(C)(C)C)cc1 [Compound 15] | 
9 | >95 | 93 |  | Cc1ncsc1-c1ccc([C@@H](C)NC(=O)[C@H]2C[C@H](O)CN2C(=O)[C@H](NC(=O)CCCCCCCCCCCNC(=O)CC(=O)Nc2cccc(Sc3ncc(N4CCC(C)(N)CC4)nc3N)c2Cl)C(C)(C)C)cc1 [Compound 16] | 
10 | >95 | >95 |  | Cc1ncsc1-c1ccc([C@@H](C)NC(=O)[C@H]2C[C@H](O)CN2C(=O)[C@H](NC(=O)CCCCCCCCCCNC(=O)CCC(=O)Nc2cccc(Sc3ncc(N4CCC(C)(N)CC4)nc3N)c2Cl)C(C)(C)C)cc1 [Compound 17] | 
11 | >95 | >95 |  | Cc1ncsc1-c1ccc([C@@H](C)NC(=O)[C@H]2C[C@H](O)CN2C(=O)[C@H](NC(=O)CCCCCCCCCCCNC(=O)CCC(=O)Nc2cccc(Sc3ncc(N4CCC(C)(N)CC4)nc3N)c2Cl)C(C)(C)C)cc1 [Compound 18] | 
12 | >95 | >95 |  | Cc1ncsc1-c1ccc([C@@H](C)NC(=O)[C@H]2C[C@H](O)CN2C(=O)[C@H](NC(=O)CCCCCCCCCCCNC(=O)CCCC(=O)Nc2cccc(Sc3ncc(N4CCC(C)(N)CC4)nc3N)c2Cl)C(C)(C)C)cc1 [Compound 19] | 
13 | 80 | >95 | >95 | Cc1ncsc1-c1ccc([C@@H](C)NC(=O)[C@H]2C[C@H](O)CN2C(=O)[C@H](NC(=O)COCCOCCOCCNC(=O)CCC(=O)Nc2cccc(Sc3ncc(N4CCC(C)(N)CC4)nc3N)c2Cl)C(C)(C)C)cc1 [Compound 20] | 
14 | 32 | 87 | 85 | Cc1ncsc1-c1ccc([C@@H](C)NC(=O)[C@H]2C[C@H](O)CN2C(=O)[C@H](NC(=O)CCOCCOCCOCCNC(=O)CCC(=O)Nc2cccc(Sc3ncc(N4CCC(C)(N)CC4)nc3N)c2Cl)C(C)(C)C)cc1 [Compound 21] | 
15 | 53 | >95 | 95 | Cc1ncsc1-c1ccc([C@@H](C)NC(=O)[C@H]2C[C@H](O)CN2C(=O)[C@H](NC(=O)COCCOCCOCCOCCNC(=O)CCC(=O)Nc2cccc(Sc3ncc(N4CCC(C)(N)CC4)nc3N)c2Cl)C(C)(C)C)cc1 [Compound 22] | 
16 | 80 | >95 | 6 | Cc1ncsc1-c1ccc([C@@H](C)NC(=O)[C@H]2C[C@H](O)CN2C(=O)[C@H](NC(=O)CCCCCCCCCCCN2CCN(CC(=O)Nc3cccc(Sc4ncc(N5CCC(C)(N)CC5)nc4N)c3Cl)CC2)C(C)(C)C)cc1 [Compound 24] | 
17 | 62 | 90 | 8 | Cc1ncsc1-c1ccc([C@@H](C)NC(=O)[C@H]2C[C@H](O)CN2C(=O)[C@H](NC(=O)CCCCCCCCCCCCCCC(=O)Nc2cccc(Sc3ncc(N4CCC(C)(N)CC4)nc3N)c2Cl)C(C)(C)C)cc1 [Compound 25] | 
18 | >95 | >95 | >95 | Cc1ncsc1-c1ccc([C@@H](C)NC(=O)[C@H]2C[C@H](O)CN2C(=O)[C@H](NC(=O)CCCCCCCCCN2CCN(C(=O)CCC(=O)Nc3cccc(Sc4ncc(N5CCC(C)(N)CC5)nc4N)c3Cl)CC2)C(C)(C)C)cc1 [Compound 27] | 
19 | >95 | >95 | 90 | Cc1ncsc1-c1ccc([C@@H](C)NC(=O)[C@H]2C[C@H](O)CN2C(=O)[C@H](NC(=O)CCCCCCCOc2ccc(NC(=O)CCC(=O)Nc3cccc(Sc4ncc(N5CCC(C)(N)CC5)nc4N)c3Cl)cc2)C(C)(C)C)cc1 [Compound 28] | 
20 | >95 | >95 | >95 | Cc1ncsc1-c1ccc([C@@H](C)NC(=O)[C@H]2C[C@H](O)CN2C(=O)[C@H](NC(=O)CCCCCCCCCCCNC(=O)CC(=O)Nc2cccc(Sc3ncc(N4CCC(C)(CN)CC4)nc3N)c2Cl)C(C)(C)C)cc1 [Compound 40] | 
21 | >95 | >95 | 94 | Cc1ncsc1-c1ccc([C@H](C)NC(=O)[C@@H]2C[C@@H](O)CN2C(=O)[C@@H](NC(=O)CCOCCOCCOCCNC(=O)CC(=O)Nc2cccc(Sc3ncc(N4CCC5(CCC[C@@H]5N)CC4)nc3N)c2Cl)C(C)(C)C)cc1 [Compound 42] | 
22 |  |  |  | CC(C)C[C@@H](C=O)NC(=O)[C@H](CC(C)C)NC(=O)[C@H](CC(C)C)NC(=O)OCc1ccccc1 [MG132, reference compound] (Cbz-Leu-Leu-Leu-aldehyde) | effectively block degradation of SHP2 protein
23 |  |  |  | NS(=O)(=O)OC[C@@H]1C[C@@H](n2ccc3c(N[C@H]4CCc5ccccc54)ncnc32)C[C@@H]1O [MLN4924, reference compound] | effectively block degradation of SHP2 protein
